Experimental data as given in patent US20250122219A1 (priority 2023, published 2025).

Tests used:
[1] = Cytotoxicity assay in MT-4 cells; format: cell-based; details: human; uninfected MT-4 cells, 5 days incubation, Cell Titer Glo; read-out: MT4 CC50
Procedure, shortened: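 Viability read by Cell Titer Glo luminescence after 5 days at 37 °C. MT-4 cells, not infected, in complete RPMI (10% FBS), received compound dilution series. Base cytotoxicity set with […] puromycin.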

HIV-1 (IIIB) = experiment: Antiviral assay in MT-4 cells; format: cell-based; details: Human immunodeficiency virus 1, MT4, 120 h; HIV-1 IIIB in MT-4 cells, 5 days incubation, Cell Titer Glo; read-out: MT4 EC50
Description: Compounds were tested in a high-throughput 384-well assay format for their ability to inhibit the replication of HIV-1 (IIIB) in MT-4 cells. Compounds were serially diluted (1.3) in DMSO on 384-well polypropylene plates and further diluted 200-fold into complete RPMI media (10% FBS, 1% P/S) using the Biotek Micro Flow and Labcyte ECHO acoustic dispenser. Each plate contained up to 8 test compounds, with negative (No Drug Control) and 5 μM AZT positive controls. MT-4 cells were pre-infected with 10 μL of either RPMI (mock-infected) or a fresh 1:250 dilution of HIV-1 IIIB concentrated virus stock. Infected and uninfected MT-4 cells were further diluted in complete RPMI media and added to each plate using a Micro Flow dispenser. After 5 days incubation in a humidified and temperature controlled incubator (37° C.), Cell Titer Glo (Promega) was added to the assay plates and chemiluminescence read using an Envision plate-reader.

Work on `CCCC/C=C\CCCCCCCC(=O)Oc1c2n(cc(C(=O)NCc3ccc(F)cc3F)c1=O)[C@@H]1CN(C2=O)[C@@H](C)CC[C@]12CC(OC)=NO2` [Example 31, (3′S,5S,7′R)-10′-((2,4-difluorobenzyl)carbamoyl)-3-methoxy-3′-methyl-1′,11′-dioxo-1′,4′,5′,11′-tetrahydro-3′H,4H,7′H-spiro[isoxazole-5,6′-[2,7]methanopyrido[1,2-a][1,4]diazonin]-12′-yl (Z)-tetradec-9-enoate] yielded a CC50 at 5 days [1] of 15.7 µM and an EC50 (HIV-1 (IIIB)) of 0.00239 µM.
Compound `CCC(=O)Oc1c2n(cc(C(=O)NCc3ccc(F)cc3F)c1=O)[C@@H]1CN(C2=O)[C@@H](C)CC[C@]12CC(OC)=NO2` [Example 32, (3′S,5S,7′R)-10′-((2,4-difluorobenzyl)carbamoyl)-3-methoxy-3′-methyl-1′,11′-dioxo-1′,4′,5′,11′-tetrahydro-3′H,4H,7′H-spiro[isoxazole-5,6′-[2,7]methanopyrido[1,2-a][1,4]diazonin]-12′-yl propionate] has a CC50 at 5 days [1] of 31.7 µM and an EC50 (HIV-1 (IIIB)) of 0.00118 µM.
In the case of `CCC(=O)Oc1c2n(cc(C(=O)NCc3ccc(F)cc3F)c1=O)[C@@H]1CN(C2=O)[C@@H](C)CC[C@]12CC(C)=NO2` [Example 33, (3′S,5S,7′R)-10′-((2,4-difluorobenzyl)carbamoyl)-3,3′-dimethyl-1′,11′-dioxo-1′,4′,5′,11′-tetrahydro-3′H,4H,7′H-spiro[isoxazole-5,6′-[2,7]methanopyrido[1,2-a][1,4]diazonin]-12′-yl propionate], the CC50 at 5 days [1] is reported as 22.6 µM and the EC50 (HIV-1 (IIIB)) is reported as 0.00142 µM.
`CCCC(=O)Oc1c2n(cc(C(=O)NCc3ccc(F)cc3F)c1=O)[C@@H]1CN(C2=O)[C@@H](C)CC[C@]12CC(OC)=NO2` [Example 34, (3′S,5S,7′R)-10′-((2,4-difluorobenzyl)carbamoyl)-3-methoxy-3′-methyl-1′,11′-dioxo-1′,4′,5′,11′-tetrahydro-3′H,4H,7′H-spiro[isoxazole-5,6′-[2,7]methanopyrido[1,2-a][1,4]diazonin]-12′-yl butyrate] showed a CC50 at 5 days [1] of 16.3 µM and an EC50 (HIV-1 (IIIB)) of 0.000218 µM.
Compound `CCCC(=O)Oc1c2n(cc(C(=O)NCc3ccc(F)cc3F)c1=O)[C@@H]1CN(C2=O)[C@@H](C)CC[C@]12CC(C)=NO2` [Example 35, (3′S,5S,7′R)-10′-((2,4-difluorobenzyl)carbamoyl)-3,3′-dimethyl-1′,11′-dioxo-1′,4′,5′,11′-tetrahydro-3′H,4H,7′H-spiro[isoxazole-5,6′-[2,7]methanopyrido[1,2-a][1,4]diazonin]-12′-yl butyrate] has a CC50 at 5 days [1] of 14.1 µM and an EC50 (HIV-1 (IIIB)) of 0.000203 µM.
With `CCCCCC(=O)Oc1c2n(cc(C(=O)NCc3ccc(F)cc3F)c1=O)[C@@H]1CN(C2=O)[C@@H](C)CC[C@]12CC(OC)=NO2` [Example 36, (3′S,5S,7′R)-10′-((2,4-difluorobenzyl)carbamoyl)-3-methoxy-3′-methyl-1′,11′-dioxo-1′,4′,5′,11′-tetrahydro-3′H,4H,7′H-spiro[isoxazole-5,6′-[2,7]methanopyrido[1,2-a][1,4]diazonin]-12′-yl hexanoate] the CC50 at 5 days [1] was 19.6 µM and the EC50 (HIV-1 (IIIB)) was 0.000345 µM.
Compound `CCCCCC(=O)Oc1c2n(cc(C(=O)NCc3ccc(F)cc3F)c1=O)[C@@H]1CN(C2=O)[C@@H](C)CC[C@]12CC(C)=NO2` [Example 37, (3′S,5S,7′R)-10′-((2,4-difluorobenzyl)carbamoyl)-3,3′-dimethyl-1′,11′-dioxo-1′,4′,5′,11′-tetrahydro-3′H,4H,7′H-spiro[isoxazole-5,6′-[2,7]methanopyrido[1,2-a][1,4]diazonin]-12′-yl hexanoate] has a CC50 at 5 days [1] of 17.4 µM and an EC50 (HIV-1 (IIIB)) of 0.000403 µM.
`CCCCCCC(=O)Oc1c2n(cc(C(=O)NCc3ccc(F)cc3F)c1=O)[C@@H]1CN(C2=O)[C@@H](C)CC[C@]12CC(OC)=NO2` [Example 38, (3′S,5S,7′R)-10′-((2,4-difluorobenzyl)carbamoyl)-3-methoxy-3′-methyl-1′,11′-dioxo-1′,4′,5′,11′-tetrahydro-3′H,4H,7′H-spiro[isoxazole-5,6′-[2,7]methanopyrido[1,2-a][1,4]diazonin]-12′-yl heptanoate] showed a CC50 at 5 days [1] of 25.7 µM and an EC50 (HIV-1 (IIIB)) of 0.000331 µM.
Compound `CCCCCCC(=O)Oc1c2n(cc(C(=O)NCc3ccc(F)cc3F)c1=O)[C@@H]1CN(C2=O)[C@@H](C)CC[C@]12CC(C)=NO2` [Example 39, (3′S,5S,7′R)-10′-((2,4-difluorobenzyl)carbamoyl)-3,3′-dimethyl-1′,11′-dioxo-1′,4′,5′,11′-tetrahydro-3′H,4H,7′H-spiro[isoxazole-5,6′-[2,7]methanopyrido[1,2-a][1,4]diazonin]-12′-yl heptanoate] has a CC50 at 5 days [1] of 23.7 µM and an EC50 (HIV-1 (IIIB)) of 0.00075 µM.
With `CCCCCCCC(=O)Oc1c2n(cc(C(=O)NCc3ccc(F)cc3F)c1=O)[C@@H]1CN(C2=O)[C@@H](C)CC[C@]12CC(OC)=NO2` [Example 40, (3′S,5S,7′R)-10′-((2,4-difluorobenzyl)carbamoyl)-3-methoxy-3′-methyl-1′,11′-dioxo-1′,4′,5′,11′-tetrahydro-3′H,4H,7′H-spiro[isoxazole-5,6′-[2,7]methanopyrido[1,2-a][1,4]diazonin]-12′-yl octanoate] the CC50 at 5 days [1] was 25.1 µM and the EC50 (HIV-1 (IIIB)) was 0.000592 µM.
Compound `CCCCCCCC(=O)Oc1c2n(cc(C(=O)NCc3ccc(F)cc3F)c1=O)[C@@H]1CN(C2=O)[C@@H](C)CC[C@]12CC(C)=NO2` [Example 41, (3′S,5S,7′R)-10′-((2,4-difluorobenzyl)carbamoyl)-3,3′-dimethyl-1′,11′-dioxo-1′,4′,5′,11′-tetrahydro-3′H,4H,7′H-spiro[isoxazole-5,6′-[2,7]methanopyrido[1,2-a][1,4]diazonin]-12′-yl octanoate] has a CC50 at 5 days [1] of 11.5 µM and an EC50 (HIV-1 (IIIB)) of 0.000319 µM.
`CCCCCCCCC(=O)Oc1c2n(cc(C(=O)NCc3ccc(F)cc3F)c1=O)[C@@H]1CN(C2=O)[C@@H](C)CC[C@]12CC(OC)=NO2` [Example 42, (3′S,5S,7′R)-10′-((2,4-difluorobenzyl)carbamoyl)-3-methoxy-3′-methyl-1′,11′-dioxo-1′,4′,5′,11′-tetrahydro-3′H,4H,7′H-spiro[isoxazole-5,6′-[2,7]methanopyrido[1,2-a][1,4]diazonin]-12′-yl nonanoate] showed a CC50 at 5 days [1] of 40.6 µM and an EC50 (HIV-1 (IIIB)) of 0.00194 µM.
For `CCCCCCCCC(=O)Oc1c2n(cc(C(=O)NCc3ccc(F)cc3F)c1=O)[C@@H]1CN(C2=O)[C@@H](C)CC[C@]12CC(C)=NO2` [Example 43, (3′S,5S,7′R)-10′-((2,4-difluorobenzyl)carbamoyl)-3,3′-dimethyl-1′,11′-dioxo-1′,4′,5′,11′-tetrahydro-3′H,4H,7′H-spiro[isoxazole-5,6′-[2,7]methanopyrido[1,2-a][1,4]diazonin]-12′-yl nonanoate], the CC50 at 5 days [1] was 21.1 µM and the EC50 (HIV-1 (IIIB)) was 0.00197 µM.
Work on `CCCCCCCCCC(=O)Oc1c2n(cc(C(=O)NCc3ccc(F)cc3F)c1=O)[C@@H]1CN(C2=O)[C@@H](C)CC[C@]12CC(OC)=NO2` [Example 44, (3′S,5S,7′R)-10′-((2,4-difluorobenzyl)carbamoyl)-3-methoxy-3′-methyl-1′,11′-dioxo-1′,4′,5′,11′-tetrahydro-3′H,4H,7′H-spiro[isoxazole-5,6′-[2,7]methanopyrido[1,2-a][1,4]diazonin]-12′-yl decanoate] yielded a CC50 at 5 days [1] of 24.5 µM and an EC50 (HIV-1 (IIIB)) of 0.000477 µM.
